From ChEMBL document CHEMBL3120052, “HCV polymerase inhibitors” (ACS Med Chem Lett, 2014)

Tested on: Hepatitis C virus
Experiment: Antiviral activity against HCV genotype 1b expressing wild type NS3-NS5B infected in HuH7 luc/neo cells assessed as inhibition of RNA replication after 3 days by luciferase reporter gene assay
Format: functional, organism-based, Hepacivirus hominis
Settings: Huh-7, 72 h

Row | SMILES | EC50 [µM]
1 | C[C@H](NP(=O)(OC[C@H]1O[C@@H](n2ccc(=O)[nH]c2=O)[C@](C)(N)[C@@H]1O)Oc1ccccc1)C(=O)OC1CCCCCCC1 (stereo partly drawn) | 0.29
2 | C[C@H](NP(=O)(OC[C@H]1O[C@@H](n2ccc(=O)[nH]c2=O)[C@](C)(NC(=O)OC(C)(C)C)[C@@H]1O)Oc1ccccc1)C(=O)OC1CCCCCCC1 (stereo partly drawn) | 15
3 | C[C@H](NP(=O)(OC[C@H]1O[C@@H](n2ccc(=O)[nH]c2=O)[C@](C)(NC(=O)OC(C)(C)C)[C@@H]1O)Oc1ccccc1)C(=O)OC1CCCC1 (stereo partly drawn) | 4.7
4 | C[C@H](NP(=O)(OC[C@H]1O[C@@H](n2ccc(=O)[nH]c2=O)[C@](C)(N)[C@@H]1O)Oc1ccccc1)C(=O)OC1CCCC1 (stereo partly drawn) | 0.47
5 | C[C@H](NP(=O)(OC[C@H]1O[C@@H](n2ccc(=O)[nH]c2=O)[C@](C)(NC(=O)OC(C)(C)C)[C@@H]1O)Oc1ccccc1)C(=O)OCCC(C)(C)C (stereo partly drawn) | 2.3
6 | C[C@H](NP(=O)(OC[C@H]1O[C@@H](n2ccc(=O)[nH]c2=O)[C@](C)(N)[C@@H]1O)Oc1ccccc1)C(=O)OCCC(C)(C)C (stereo partly drawn) | 0.49
7 | C[C@H](NP(=O)(OC[C@H]1O[C@@H](n2ccc(=O)[nH]c2=O)[C@](C)(NC(=O)OC(C)(C)C)[C@@H]1O)Oc1ccccc1)C(=O)OC1CCCCCC1 (stereo partly drawn) | 3
8 | C[C@H](NP(=O)(OC[C@H]1O[C@@H](n2ccc(=O)[nH]c2=O)[C@](C)(N)[C@@H]1O)Oc1ccccc1)C(=O)OC1CCCCCC1 (stereo partly drawn) | 0.19
